Experimental findings from patent publication US20260256925A1, “INDAZOLE DERIVATIVES AS ESTROGEN RECEPTOR DEGRADERS” (REGENTS OF THE UNIVERSITY OF MICHIGAN, priority 2022, published 2026) are described below.

Some results are limits rather than exact numbers.

For assay [1], the target named is T1, ER (Homo sapiens, UniProt P03372).
T1 construct: endogenous in cells; probably T47D or MCF-7
T1 sequence (P03372 1-595): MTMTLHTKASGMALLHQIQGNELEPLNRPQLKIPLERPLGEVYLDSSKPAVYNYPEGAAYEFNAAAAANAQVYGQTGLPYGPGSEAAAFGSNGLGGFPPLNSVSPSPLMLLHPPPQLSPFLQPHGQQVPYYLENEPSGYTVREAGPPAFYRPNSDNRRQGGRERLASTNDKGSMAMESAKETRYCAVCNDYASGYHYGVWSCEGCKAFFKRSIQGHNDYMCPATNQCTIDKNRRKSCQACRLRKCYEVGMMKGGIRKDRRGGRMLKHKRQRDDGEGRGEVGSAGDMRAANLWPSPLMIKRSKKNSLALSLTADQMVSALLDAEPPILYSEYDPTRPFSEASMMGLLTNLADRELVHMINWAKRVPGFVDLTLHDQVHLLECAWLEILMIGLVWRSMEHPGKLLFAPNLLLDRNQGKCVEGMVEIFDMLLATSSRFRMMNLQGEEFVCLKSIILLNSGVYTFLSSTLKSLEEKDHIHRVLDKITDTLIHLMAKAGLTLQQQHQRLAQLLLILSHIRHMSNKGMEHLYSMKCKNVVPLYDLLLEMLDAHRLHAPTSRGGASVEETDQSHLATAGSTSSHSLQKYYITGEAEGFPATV
Put plainly: In-cell Western (ICW) ER degradation assay in MCF-7 cells. The format is cell-based. The note with it: for DC50: read-out: ER MCF7 ICW DC50. The protocol: (§1) ERa degradative activity of compounds can be assessed in MCF-7 and T47D Cells. MCF-7 and T47D cell are seeded and are subsequently treated with the compounds at certain concentrations (e.g., 0.02 to 300 nM). DMSO can be used as vehicle control. Cells are fixed and are blocked with Intercept (PBS) Blocking Buffer (e.g., Li—COR, Odyssey Blocking Buffer), and are stained with ER (e.g., 1:500, Cell signaling) primary antibody for overnight at cold room. Secondary Antibody (e.g., IRDye 800CW Goat anti-Rabbit IgG) and CellTag 700 Stain are added in Intercept (PBS) Blocking Buffer. Finally, cell plate is placed in incubator to dry. Image and signal are captured on Odyssey® DLx Imaging System.
(§2) In-cell Western (ICW) assays in MCF-7 and T47D cell lines.
(§3) Procedures for ICW assays
(§4) In vitro Assay: MCF-7 and T47D ICW assay
(§5) Day 3: After 16 hrs of compounds treatment, cells were fixed by 4% PFA and permeabilized with elution buffer (0.1% Triton X-100 in 1% PBS Solution). Subsequently, cells were blocked with Intercept (PBS) Blocking Buffer (Li—COR, Odyssey Blocking Buffer), and were stained with ER (1:500, Cell signaling) primary antibody for overnight at cold room.
(§6) Day 4: Remove the buffer, add IRDye 800CW Goat anti-Rabbit IgG Secondary Antibody (1:2000) and CellTag 700 Stain (1:500) in Intercept (PBS) Blocking Buffer. Finally, cell plate is placed in incubator to dry. Image and signal were captured on Odyssey® DLx Imaging System.

In assay [2] the target is T1, ER. The assay can be described thus: In-cell Western (ICW) ER degradation assay in T47D cells. Type of assay: cell-based. The settings on record: for Dmax: T47D, read-out: ER T47D ICW Dmax (%). As to the method: as §1, §2, §3, §4, §5, §6
A further assay deals with T2, ERα_LBD (GST) (Homo sapiens, UniProt P03372).
T2 construct: ERα_LBD (GST) protein: 4 nM; purchased ThermoFisher A15887
T2 sequence (P03372 311-547 limits assumed): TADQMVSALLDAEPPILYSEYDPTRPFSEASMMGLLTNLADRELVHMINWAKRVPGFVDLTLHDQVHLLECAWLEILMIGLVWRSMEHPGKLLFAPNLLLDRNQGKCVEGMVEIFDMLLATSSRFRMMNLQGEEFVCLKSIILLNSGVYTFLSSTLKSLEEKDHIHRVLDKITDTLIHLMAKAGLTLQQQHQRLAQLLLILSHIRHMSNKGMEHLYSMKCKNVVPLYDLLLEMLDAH
Put plainly: IC50 measurements for binding to ERα_LBD (GST), LanthaScreen TR-FRET ERα competitive binding assay. The settings on record: Fluormone ES2 Green tracer, 60 min, read-out: ERα HTRF IC50. As to the method:
In vitro Assay: IC50 Measurements for binding to ERα_LBD (GST)·
Final assay conditions: • 1. ERα_LBD (GST) protein: 4 nM • 2. Tb Anti-GST: 2 nM • 3. Fluormone ES2 Green tracer: 3 nM • 4. Incubation time: 60 min • 5. DMSO: 1% • 6. Assay buffer: Adding 1M DTT to Nuclear receptor Buffer K for final 5 mM DTT. • 7. ZPE: 1% DMSO • 8. HPE: 1 μM ARV_471 • 9. LanthaScreen® TR-FRET ERα Competitive Binding Assay (ThermoFisher, #A^15887)
100× Compound preparation: • 1) Cherry pick 2 μL 10 mM compound stock to column 1 of a 384 intermediate plate • 2) Add 18 μL DMSO to column 1 to dilute compound to 1 mM. • 3) Transfer 10 μL 1 mM compound to column 1 of a LDV plate. • 2) Add 6 μl DMSO to column 2-10 of the LDV plate. • 3) Compounds undergo 3-fold serial dilution (3 μL+6 μL) in DMSO. • 4) Transfer 120 nL compound solution to assay plate.
Prepare complete nuclear receptor buffer K by adding 1 M DTT to nuclear receptor buffer K for a final concentration of 5 mM DTT. Complete nuclear receptor buffer K must be prepared fresh daily. Prepare 2× protein solution using complete nuclear receptor buffer K containing 8 nM ERα_LBD (GST) and 4 nM Tb Anti-GST. Then, prepare 2× Fluormone ES2 Green tracer (6 nM) using complete nuclear receptor buffer K. Add 6 μL 2× Fluormone ES2 green tracer into a compound plate (PerkinElmer 6008289) by dragonfly with one-tips-addition. Subsequently, add 6 μL 2× protein solution into the plate. Briefly and gently mix the 384-well plate on a plate shaker and incubate at room temperature protected from light for 60 min. The plate is sealed with a cover to minimize evaporation. Read the plate at wavelengths of 520 nm and 495 nm. Calculate the TR-FRET ratio by dividing the emission signal at 520 nm by the emission signal at 495 nm. Generate a binding curve by plotting the emission ratio vs. the log [ligand]. To determine the IC50 value, fit the data using XL-fit for a sigmoidal dose-response.

The target of the next assay is T3, CRBN/DDB1 (Homo sapiens, UniProt Q96SW2).
T3 construct: purchased Wuxi RP210521GA
T3 sequence (Q96SW2 whole entry): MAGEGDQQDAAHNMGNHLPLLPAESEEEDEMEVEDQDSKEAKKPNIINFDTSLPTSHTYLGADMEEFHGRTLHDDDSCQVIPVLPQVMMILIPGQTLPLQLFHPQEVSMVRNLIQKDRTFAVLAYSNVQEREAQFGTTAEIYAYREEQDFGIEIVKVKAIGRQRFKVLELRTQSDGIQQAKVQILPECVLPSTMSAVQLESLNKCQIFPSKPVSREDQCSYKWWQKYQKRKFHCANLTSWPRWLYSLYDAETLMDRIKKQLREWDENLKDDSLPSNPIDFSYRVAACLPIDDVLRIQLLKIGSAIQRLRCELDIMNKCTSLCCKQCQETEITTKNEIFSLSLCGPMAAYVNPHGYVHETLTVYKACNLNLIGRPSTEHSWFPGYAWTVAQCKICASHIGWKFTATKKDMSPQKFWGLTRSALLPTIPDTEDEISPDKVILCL
T3 sequence (Q16531 whole entry partner): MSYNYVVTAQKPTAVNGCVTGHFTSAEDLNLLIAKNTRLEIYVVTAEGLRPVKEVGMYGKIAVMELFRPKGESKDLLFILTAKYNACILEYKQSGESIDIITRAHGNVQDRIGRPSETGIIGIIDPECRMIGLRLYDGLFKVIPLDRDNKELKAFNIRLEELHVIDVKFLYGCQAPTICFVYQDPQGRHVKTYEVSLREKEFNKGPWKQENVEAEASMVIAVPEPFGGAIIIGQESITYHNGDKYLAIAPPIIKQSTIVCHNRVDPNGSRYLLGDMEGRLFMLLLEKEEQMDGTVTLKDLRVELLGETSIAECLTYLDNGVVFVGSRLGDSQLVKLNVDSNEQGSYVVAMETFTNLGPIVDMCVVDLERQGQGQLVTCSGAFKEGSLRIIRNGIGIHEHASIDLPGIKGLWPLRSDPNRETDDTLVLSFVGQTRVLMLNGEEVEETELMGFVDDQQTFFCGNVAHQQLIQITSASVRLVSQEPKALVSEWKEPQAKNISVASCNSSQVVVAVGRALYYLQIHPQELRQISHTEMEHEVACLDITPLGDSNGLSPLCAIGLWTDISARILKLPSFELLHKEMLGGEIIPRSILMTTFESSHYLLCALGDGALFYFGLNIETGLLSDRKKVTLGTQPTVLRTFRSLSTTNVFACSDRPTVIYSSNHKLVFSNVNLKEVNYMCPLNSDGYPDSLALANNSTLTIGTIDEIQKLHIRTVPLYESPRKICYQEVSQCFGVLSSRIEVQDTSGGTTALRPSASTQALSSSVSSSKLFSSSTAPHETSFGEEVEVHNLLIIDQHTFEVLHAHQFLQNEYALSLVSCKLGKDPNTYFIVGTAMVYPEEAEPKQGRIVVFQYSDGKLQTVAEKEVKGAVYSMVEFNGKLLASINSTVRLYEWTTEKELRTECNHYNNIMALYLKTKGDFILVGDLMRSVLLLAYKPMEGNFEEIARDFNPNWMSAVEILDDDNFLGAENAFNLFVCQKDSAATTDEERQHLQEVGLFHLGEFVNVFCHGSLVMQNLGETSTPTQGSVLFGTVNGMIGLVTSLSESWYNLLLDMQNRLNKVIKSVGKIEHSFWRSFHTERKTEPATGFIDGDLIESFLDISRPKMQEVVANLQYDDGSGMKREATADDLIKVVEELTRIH
Type of assay: binding. The settings on record: HTRF, Cy5-labeled Thalidomide probe. The protocol:
The binding potency was determined using HTRF assay technology (Perkin Elmer). Compounds were serially diluted in DMSO and 0.2 μL volume was transferred to white 384-well plate.

The mark [3] stands for this setting: MCF7, read-out: ER MCF7 ICW Dmax (%).
[4] abbreviates: MCF7, MCF-7 cells, 16 hrs, read-out: ER MCF7 ICW Dmax (%).

For `C[C@@H]1Cc2c(ccc3[nH]ncc23)[C@@H](c2ccc(N3CCC4(CC3)CC(CN3CCC5(CC3)COc3cc6c(cc35)CN([C@H]3CCC(=O)NC3=O)C6=O)C4)cn2)N1CC1(F)CC1` [Compound A5, (S)-3-(1′-((7-(6-((6S,8R)-7-((1-fluorocyclopropyl)methyl)-8-methyl-6,7,8,9-tetrahydro-3H-pyrazolo[4,3-f]isoquinolin-6-yl)pyridin-3-yl)-7-azaspiro[3.5]nonan-2-yl)methyl)-7-oxo-5,7-dihydro-2H,6H-spiro[furo[2,3-f]isoindole-3,4′-piperidin]-6-yl)piperidine-2,6-dione], the Dmax at ER [1] (setting [3]) and on ER [2] was 50 to 75% in each case. Besides, the DC50 on ER [1] (MCF-7 cells, 16 hrs) was less than 1 nM; on ER [2] (T47D cells, 16 hrs), less than 1 nM. Moreover, the IC50 is less than 10 nM at ERα_LBD (GST) and 50 to 500 nM at CRBN/DDB1.

`C[C@@H]1Cc2c(ccc3[nH]ncc23)[C@@H](c2ccc(N3CCC4(CC3)CC(CN3CCN5c6ccc7c(c6OC[C@H]5C3)CN([C@H]3CCC(=O)NC3=O)C7=O)C4)cn2)N1CC1(F)CC1` [Compound A4, (S)-3-((R)-7-((7-(6-((6S,8R)-7-((1-fluorocyclopropyl)methyl)-8-methyl-6,7,8,9-tetrahydro-3H-pyrazolo[4,3-f]isoquinolin-6-yl)pyridin-3-yl)-7-azaspiro[3.5]nonan-2-yl)methyl)-1-oxo-1,3,5,5a,6,7,8,9-octahydro-2H-pyrazino[1′,2′:4,5][1,4]oxazino[2,3-e]isoindol-2-yl)piperidine-2,6-dione]: the Dmax was 50 to 75% at ER [1] (setting [4]) and more than 75% at ER [2] (T47D cells, 16 hrs). Besides, the DC50 was less than 1 nM at ER [1] (MCF-7 cells, 16 hrs) and less than 1 nM on ER [2] (T47D cells, 16 hrs). Further, the IC50 is less than 10 nM at ERα_LBD (GST) and less than 50 nM at CRBN/DDB1.

Regarding `C[C@@H]1Cc2c(ccc3[nH]ncc23)[C@@H](c2ccc(N3CC4(CCC(CN5CCN6c7ccc8c(c7OC[C@H]6C5)CN(C5CCC(=O)NC5=O)C8=O)CC4)C3)cn2)N1CC1(F)CC1` (stereo partly drawn) [Compound A16, (S)-3-((R)-7-((2-(6-((6S,8R)-7-((1-fluorocyclopropyl)methyl)-8-methyl-6,7,8,9-tetrahydro-3H-pyrazolo[4,3-f]isoquinolin-6-yl)pyridin-3-yl)-2-azaspiro[3.5]nonan-7-yl)methyl)-1-oxo-1,3,5,5a,6,7,8,9-octahydro-2H-pyrazino[1′,2′: 4,5][1,4]oxazino[2,3-e]isoindol-2-yl)piperidine-2,6-dione], the Dmax at ER [1] (setting [3]) was more than 75%; on ER [2] (T47D cells, 16 hrs), more than 75%. Further, the DC50 was less than 1 nM on ER [1] (MCF-7 cells, 16 hrs) and less than 1 nM on ER [2] (T47D cells, 16 hrs). The IC50 on ERα_LBD (GST) is less than 10 nM.

Regarding `C[C@@H]1Cc2c(ccc3[nH]ncc23)[C@@H](c2ccc(N3CC4(CCC(CN5CCN6c7ccc8c(c7OC[C@H]6C5)CN([C@H]5CCC(=O)NC5=O)C8=O)CC4)C3)cn2)N1CC1(F)CC1` [Compound A11, (S)-3-((R)-7-((2-(6-((6S,8R)-7-((1-fluorocyclopropyl)methyl)-8-methyl-6,7,8,9-tetrahydro-3H-pyrazolo[4,3-f]isoquinolin-6-yl)pyridin-3-yl)-2-azaspiro[3.5]nonan-7-yl)methyl)-1-oxo-1,3,5,5a,6,7,8,9-octahydro-2H-pyrazino[1′,2′: 4,5][1,4]oxazino[2,3-e]isoindol-2-yl)piperidine-2,6-dione], the Dmax at ER [1] (setting [4]) was more than 75%; on ER [2] (T47D cells, 16 hrs), more than 75%. Also, the DC50 on ER [1] (MCF-7 cells, 16 hrs) is less than 1 nM; at ER [2] (T47D cells, 16 hrs), less than 1 nM. Also, the IC50 on ERα_LBD (GST) is not below 10 nM.

`COc1cc(N2CCC(CN3CCN4c5ccc6c(c5OCC4C3)CN(C3CCC(=O)NC3=O)C6=O)CC2)ccc1C1c2ccc3[nH]ncc3c2CC(C)N1CC(F)F` (stereo in doubt) [Compound A8, (R)-3-((S)-7-((1-(4-((6R,8S)-7-(2,2-difluoroethyl)-8-methyl-6,7,8,9-tetrahydro-3H-pyrazolo[4,3-f]isoquinolin-6-yl)-3-methoxyphenyl)piperidin-4-yl)methyl)-1-oxo-1,3,5,5a,6,7,8,9-octahydro-2H-pyrazino[1′,2′:4,5][1,4]oxazino[2,3-e]isoindol-2-yl)piperidine-2,6-dione]: on ER [1] (MCF-7 cells, 16 hrs), the “ER MCF7 ICW Dmax (%)” value was “A (“A”: >=75%)” and the half-maximal degradation concentration (DC50) is less than 1 nM. On ER [2] (T47D cells, 16 hrs), the DC50 was less than 1 nM and the “ER T47D ICW Dmax (%)” value was “A (“A”: >=75%)”. Moreover, at ERα_LBD (GST), the IC50 is not below 10 nM. For the same molecule, on CRBN/DDB1, the IC50 was in the range of 500 to 5000 nM.

As for `C[C@@H]1Cc2c(ccc3[nH]ncc23)C(c2ccc(N3CCC4(CC3)CC(CN3CCN5c6ccc7c(c6OC[C@H]5C3)CN([C@H]3CCC(=O)NC3=O)C7=O)C4)nc2)N1CC(F)(F)F` (stereo in doubt) [Compound A25, (S)-3-((R)-7-((7-(5-((6S,8R)-8-methyl-7-(2,2,2-trifluoroethyl)-6,7,8,9-tetrahydro-3H-pyrazolo[4,3-f]isoquinolin-6-yl)pyridin-2-yl)-7-azaspiro[3.5]nonan-2-yl)methyl)-1-oxo-1,3,5,5a,6,7,8,9-octahydro-2H-pyrazino[1′,2′: 4,5][1,4]oxazino[2,3-e]isoindol-2-yl)piperidine-2,6-dione], the Dmax on ER [1] (setting [3]) was more than 75%; on ER [2] (T47D cells, 16 hrs), more than 75%. For the same molecule, the DC50 was less than 1 nM at ER [1] (MCF-7 cells, 16 hrs) and less than 1 nM on ER [2] (T47D cells, 16 hrs). Besides, the IC50 at ERα_LBD (GST) is less than 10 nM.
